# Reference: ChEMBL document CHEMBL1201862, “PubChem BioAssay data set” (2004)
#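 Growth conditions: 96-well plates. Treatment: test compound, 48 hours, 5 concentrations. Analysis: linear interpolation between bracketing concentrations; unreached endpoints set to highest concentration. GI50 = concentration required for 50% inhibition of growth.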 Active and inactive are the calls of the source. No stated cut-off is given here; in the data, active = GI50 up to about 1.1 µM and inactive = higher.
# How the values were obtained:
# Test in all cases: NCI anticancer screen, dose series, 48 h
# BT-549 = tested on: BT-549
# CCRF-CEM = tested on: CCRF-CEM
# COLO 205 = tested on: COLO 205
# EKVX = tested on: EKVX
# HCT-15 = tested on: HCT-15
# HOP-62 = tested on: HOP-62
# HOP-92 = tested on: HOP-92
# HT-29 = tested on: HT-29
# IGROV-1 = tested on: IGROV-1
# Malme-3M = tested on: Malme-3M
# NCI-H226 = tested on: NCI-H226
# RPMI-8226 = tested on: RPMI-8226
# SNB-75 = tested on: SNB-75
# SW-620 = tested on: SW-620
# TK-10 = tested on: TK-10
# U-251 = tested on: U-251
# UACC-62 = tested on: UACC-62
# MCF7 = tested on: MCF7
# HCC 2998 = tested on: HCC 2998
Compound,GI50 (BT-549),GI50 (CCRF-CEM),GI50 (COLO 205),GI50 (EKVX),GI50 (HCT-15),GI50 (HOP-62),GI50 (HOP-92),GI50 (HT-29),GI50 (IGROV-1),GI50 (Malme-3M),GI50 (NCI-H226),GI50 (RPMI-8226),GI50 (SNB-75),GI50 (SW-620),GI50 (TK-10),GI50 (U-251),GI50 (UACC-62),GI50 (MCF7),GI50 (HCC 2998)
COc1nc(N)nc2c1n(C)c[n+]2C,> 100 µM (inactive),> 100 µM (inactive),> 100 µM (inactive),> 100 µM (inactive),> 100 µM,> 100 µM (inactive),> 100 µM (inactive),> 100 µM (inactive),> 100 µM (inactive),> 100 µM (inactive),> 100 µM (inactive),> 100 µM (inactive),> 100 µM (inactive),> 100 µM (inactive),> 100 µM (inactive),> 100 µM (inactive),> 100 µM (inactive),,
CCSC1=N/C(=C\c2ccco2)C(=O)N1,,> 100 µM (inactive),> 100 µM (inactive),> 100 µM (inactive),> 100 µM,> 100 µM (inactive),93.3 µM (inactive),> 100 µM (inactive),74.8 µM (inactive),> 100 µM (inactive),> 100 µM (inactive),> 100 µM (inactive),> 100 µM (inactive),> 100 µM (inactive),> 100 µM (inactive),> 100 µM (inactive),> 100 µM (inactive),6.59 µM (inactive),
CC(=O)c1nc(C#N)c(N)o1,,> 100 µM (inactive),> 100 µM (inactive),> 100 µM (inactive),> 100 µM,> 100 µM (inactive),> 100 µM (inactive),> 100 µM (inactive),> 100 µM (inactive),> 100 µM (inactive),> 100 µM (inactive),> 100 µM (inactive),> 100 µM (inactive),> 100 µM (inactive),> 100 µM (inactive),> 100 µM (inactive),> 100 µM (inactive),> 100 µM (inactive),> 100 µM (inactive)
COCN1C(=O)[C@@H]2CCCN2C(=O)c2cc(N)ccc21,> 100 µM (inactive),,< 0.01 µM (active),> 100 µM (inactive),> 100 µM,> 100 µM (inactive),,> 100 µM (inactive),> 100 µM (inactive),> 100 µM (inactive),,,> 100 µM (inactive),> 100 µM (inactive),> 100 µM (inactive),> 100 µM (inactive),> 100 µM (inactive),> 100 µM (inactive),
N#CCCC1(CCC#N)CCc2ccccc2C1=O,,> 100 µM (inactive),,> 100 µM (inactive),> 100 µM,> 100 µM (inactive),,> 100 µM (inactive),> 100 µM (inactive),> 100 µM (inactive),> 100 µM (inactive),> 100 µM (inactive),> 100 µM (inactive),> 100 µM (inactive),> 100 µM (inactive),> 100 µM (inactive),> 100 µM (inactive),> 100 µM (inactive),> 100 µM (inactive)
CC(=O)OC1C2CCC3CC2C2(SCCS2)C31 (stereo not drawn),,,> 100 µM (inactive),> 100 µM (inactive),> 100 µM,87.7 µM (inactive),> 100 µM (inactive),> 100 µM (inactive),> 100 µM (inactive),> 100 µM (inactive),> 100 µM (inactive),> 100 µM (inactive),,> 100 µM (inactive),> 100 µM (inactive),> 100 µM (inactive),> 100 µM (inactive),> 100 µM (inactive),> 100 µM (inactive)
O=C[C@]12CC=C3OC4OC5(CCCCC5)OC4[C@H]3[C@H]1C(=O)C=CC2=O (stereo partly drawn),,2.44 µM (inactive),,16.1 µM (inactive),18.7 µM,> 100 µM (inactive),,40.2 µM (inactive),,17.6 µM (inactive),> 100 µM (inactive),,,19.3 µM (inactive),35.1 µM (inactive),22.7 µM (inactive),21.5 µM (inactive),,32.7 µM (inactive)
CC(=O)NC(CSC1=C2NC(=O)\C=C/C=C\C=C/C(C)C(O)CC(=O)/C(C)=C\CC(O)/C=C\C(C)C(O)C(C)C=C(C)C(=O)c3c(O)c(C)cc(c3C1=O)C2=O)C(=O)O (stereo not drawn),> 100 µM (inactive),22.3 µM (inactive),21.7 µM (inactive),> 100 µM (inactive),> 100 µM,74 µM (inactive),> 100 µM (inactive),47.2 µM (inactive),43.1 µM (inactive),52.1 µM (inactive),> 100 µM (inactive),,28.6 µM (inactive),45.7 µM (inactive),> 100 µM (inactive),43.2 µM (inactive),51.5 µM (inactive),53.3 µM (inactive),
CCOC(=O)/C(C)=C\[C@@]1(C)O[C@@H](C)[C@@](C)(OC(C)=O)[C@@H]1OC(C)=O,,33.5 µM (inactive),30 µM (inactive),36.1 µM (inactive),17.1 µM,70.6 µM (inactive),25.6 µM (inactive),40.6 µM (inactive),37.7 µM (inactive),57.3 µM (inactive),39.9 µM (inactive),51.8 µM (inactive),,67.5 µM (inactive),78.9 µM (inactive),64.1 µM (inactive),49.9 µM (inactive),23 µM (inactive),30.2 µM (inactive)
O=c1c(/C=C/c2c(O)ccc3ccccc23)nnc2sc(-c3cccc([N+](=O)[O-])c3)nn12,17.2 µM (inactive),,26.5 µM (inactive),18.7 µM (inactive),4.43 µM,18.2 µM (inactive),24.2 µM (inactive),36.4 µM (inactive),15.3 µM (inactive),11.4 µM (inactive),,14.6 µM (inactive),,3.03 µM (inactive),9.29 µM (inactive),7.6 µM (inactive),11.4 µM (inactive),,
O=C(NNC(=O)c1ccccc1O)c1ccco1,> 100 µM (inactive),31.3 µM (inactive),83 µM (inactive),> 100 µM (inactive),61.1 µM,> 100 µM (inactive),,51.5 µM (inactive),64.9 µM (inactive),> 100 µM (inactive),> 100 µM (inactive),84.5 µM (inactive),38.6 µM (inactive),67.8 µM (inactive),> 100 µM (inactive),> 100 µM (inactive),> 100 µM (inactive),> 100 µM (inactive),
COc1c(-c2ccc3c(c2)OCO3)oc2cc(O)cc(O)c2c1=O,,41.4 µM (inactive),> 100 µM (inactive),43.7 µM (inactive),55.6 µM,18.6 µM (inactive),34.3 µM (inactive),36.6 µM (inactive),26.2 µM (inactive),,> 100 µM (inactive),34 µM (inactive),13.4 µM (inactive),,95.1 µM (inactive),75.2 µM (inactive),46.6 µM (inactive),21.6 µM (inactive),78.9 µM (inactive)
CCOC(=O)/C(=C/c1ccc(Cl)cc1)N(CC)CC,,> 100 µM (inactive),> 100 µM (inactive),> 100 µM (inactive),> 100 µM,> 100 µM (inactive),74.1 µM (inactive),> 100 µM (inactive),> 100 µM (inactive),> 100 µM (inactive),> 100 µM (inactive),> 100 µM (inactive),> 100 µM (inactive),> 100 µM (inactive),> 100 µM (inactive),> 100 µM (inactive),> 100 µM (inactive),,> 100 µM (inactive)
